Assay results taken from ChEMBL document CHEMBL1201862, “PubChem BioAssay data set” (2004).
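48-hour exposure; five concentrations; linearly interpolated endpoints. GI50 = concentration required for 50% inhibition of growth.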 Calls of active or inactive are those of the source. No stated cut-off is given here; in the data, active = GI50 up to about 1.1 µM and inactive = higher.

What was measured:
Assay in all cases: DTP human tumour cell line panel, 48 h
[1] = system: BT-549
[2] = system: SNB-19
[3] = system: UACC-257
[4] = system: SK-MEL-5
[5] = system: UO-31
[6] = system: SK-OV-3
[7] = system: CCRF-CEM
[8] = system: SW-620
[9] = system: HCC 2998
[10] = system: NCI-H522
[11] = system: SR
[12] = system: SK-MEL-28
[13] = system: OVCAR-3
[14] = system: SN12C
[15] = system: CAKI-1
[16] = system: HL-60
[17] = system: NCI/ADR-RES
[18] = system: RXF 393
[19] = system: NCI-H226
[20] = system: A498

Measured: GI50

C/C(=N/NC(=S)NCCc1ccccn1)c1cnccn1
inactive: [1] 32.5 µM | [2] 54.7 µM | [3] 35.6 µM | [4] 27 µM | [5] 16.6 µM | [6] 20.1 µM | [7] 2.64 µM | [8] 11.9 µM | [9] 40.4 µM | [10] 3.6 µM | [11] 2.44 µM | [12] 31 µM | [13] 32.1 µM | [14] 21.9 µM | [15] 14.1 µM

CC(=O)OC12c3ccccc3-c3ccccc3C1C(C(=O)O)C2C(=O)O (stereo not given)
inactive: [16] > 10 µM | [2] > 10 µM | [3] > 10 µM | [4] > 10 µM | [5] > 10 µM | [6] > 10 µM | [17] > 10 µM | [7] > 10 µM | [18] > 10 µM | [8] > 10 µM | [9] > 10 µM | [10] > 10 µM | [19] > 10 µM | [11] > 10 µM | [20] > 10 µM | [12] > 10 µM | [13] > 10 µM | [14] > 10 µM | [15] > 10 µM

COC(=O)C1C(=O)CC2CCCCC21 (stereo not given)
inactive: [16] > 100 µM | [2] > 100 µM | [3] > 100 µM | [4] > 100 µM | [5] > 100 µM | [6] > 100 µM | [7] > 100 µM | [18] > 100 µM | [8] > 100 µM | [9] > 100 µM | [10] > 100 µM | [19] > 100 µM | [11] > 100 µM | [20] > 100 µM | [12] > 100 µM | [13] > 100 µM | [14] > 100 µM | [15] > 100 µM

Cc1ccccc1NC(=O)C1C(=O)N(c2ccccc2C)C(=O)/C1=N\N (stereo not given)
inactive: [16] > 100 µM | [2] > 100 µM | [3] > 100 µM | [4] > 100 µM | [5] > 100 µM | [6] > 100 µM | [7] > 100 µM | [18] > 100 µM | [8] > 100 µM | [9] > 100 µM | [10] > 100 µM | [19] > 100 µM | [11] > 100 µM | [20] > 100 µM | [12] > 100 µM | [13] > 100 µM | [14] > 100 µM | [15] > 100 µM

CC1=C(C(=O)Nc2ccccc2C)C(c2ccc(C3C(C(=O)Nc4ccccc4C)=CNC=C3C(=O)Nc3ccccc3C)cc2)C(C(=O)Nc2ccccc2C)=C(C)N1
inactive: [16] 8 µM | [2] 19.8 µM | [3] 17.1 µM | [4] 12.9 µM | [5] 18.7 µM | [6] 27.3 µM | [7] 3.15 µM | [18] 47.2 µM | [8] 14.6 µM | [9] 17.8 µM | [10] 6.68 µM | [19] 17 µM | [11] 3.22 µM | [20] 20.7 µM | [12] 17.9 µM | [13] 20.3 µM | [14] 14.8 µM | [15] 21.3 µM

CC1C2CC=CC(=O)[C@@]2(C)CCC12OCCO2 (stereo not given in full)
inactive: [16] > 10 µM | [2] > 100 µM | [3] > 100 µM | [4] 24.6 µM | [5] > 100 µM | [6] > 100 µM | [7] > 100 µM | [18] > 100 µM | [8] > 100 µM | [9] > 100 µM | [10] > 100 µM | [19] > 100 µM | [11] > 100 µM | [20] > 100 µM | [12] > 100 µM | [13] > 100 µM | [14] > 100 µM | [15] > 100 µM

CCOC(=O)CC(N1CC1)N1CC1
inactive: [16] > 10 µM | [2] > 10 µM | [3] > 10 µM | [4] > 10 µM | [5] > 10 µM | [6] > 10 µM | [17] > 10 µM | [7] > 10 µM | [18] > 10 µM | [8] > 10 µM | [9] > 10 µM | [10] > 10 µM | [19] > 10 µM | [11] > 10 µM | [20] > 10 µM | [12] > 10 µM | [13] > 10 µM | [14] > 10 µM | [15] > 10 µM

CC(C)c1ccc(/C=C2\CSCC3=C2N=C2SCC(=O)N2C3c2ccc(C(C)C)cc2)cc1 (stereo not given)
inactive: [16] > 100 µM | [3] > 100 µM | [4] > 100 µM | [5] 40.4 µM | [6] > 100 µM | [17] > 100 µM | [7] 68.1 µM | [8] > 100 µM | [9] > 100 µM | [19] > 100 µM | [11] 77.4 µM | [12] > 100 µM | [13] > 100 µM | [14] 92.7 µM | [15] > 100 µM
